Patent US6410533B1, “Antibacterial compounds” (Genzyme Corporation, priority 2000, dated 2002)
In brackets after ≈: the same amount, converted by molar mass.

Tested on: Staphylococcus aureus bacteria (ATCC 9604 SV)
Assay: IC50 determination, growth inhibition by turbidity at 550 nm
Type: cell-based
Settings: Staphylococcus aureus ATCC 9604 SV; turbidity at 550 nm after 3-5 h at 37° C.
Experimental: (§1) Minimal inhibitory concentrations (MICs) for Staphylococcus aureus bacteria (ATCC 9604 SV) were determined by broth microdilution methodology following National Committee for Clinical Laboratory Standards. In the MIC determinations, the compounds were incorporated into Mueller-Hinton broth (Becton Dickinson Microbiology systems, Cockeyville, Md.) at a series of concentrations. After the test organism was grown overnight in TB broth, the broths were adjusted to the turbidity equivalent to 0.05 McFarland standard. The suspensions were diluted twenty-fold into the broth containing the compounds. […] In the IC50 determination, the method was modified to allow the rapid growth of the organisms. The inoculum suspensions were adjusted to 0.1 McFarland standard and then diluted two-fold into the wells containing TB broth and the compounds. After three to five hours incubation at 37° C., the turbidity was measured at 550 nm and inhibitory activity was defined as the concentration of antimicrobial agent that inhibits 50% growth of the organism in the microdilution wells.

Compound	IC50 [nM]
O=C(Nc1ccc(F)c(C(F)(F)F)c1)Nc1nc(-c2ccc(Br)cc2)cs1 [Compound 166]	205
CC(C)(C)c1csc(NC(=O)Nc2cc(C(F)(F)F)cc(C(F)(F)F)c2)n1 [Compound 124]	513
O=C(Nc1cc(C(F)(F)F)cc(C(F)(F)F)c1)Nc1nc(-c2ccc(Cl)c(Cl)c2)cs1 [Compound 150]	410
COc1cccc(-c2csc(NC(=O)Nc3cc(C(F)(F)F)cc(C(F)(F)F)c3)n2)c1 [Compound 134]	4520
O=C(Nc1cc(C(F)(F)F)cc(C(F)(F)F)c1)Nc1nc(-c2ccc(-c3ccccc3)cc2)cs1 [Compound 147]	799
O=C(Nc1cc(C(F)(F)F)cc(C(F)(F)F)c1)Nc1nc(-c2ccc(F)cc2F)cs1 [Compound 149]	879
Cc1ccc(-c2csc(NC(=O)Nc3cc(C(F)(F)F)cc(C(F)(F)F)c3)n2)cc1 [Compound 140]	653
O=C(Nc1cc(C(F)(F)F)cc(C(F)(F)F)c1)Nc1cc(-c2ccc(OC(F)(F)F)cc2)nn1-c1ccc(C(F)(F)F)cc1 [Compound 81]	159
COc1ccc(-c2csc(NC(=O)Nc3cc(C(F)(F)F)cc(C(F)(F)F)c3)n2)cc1 [Compound 141]	1360
COc1ccccc1-c1csc(NC(=O)Nc2cc(C(F)(F)F)cc(C(F)(F)F)c2)n1 [Compound 133]	4630
O=C(Nc1cc(Cl)cc(Cl)c1)Nc1nc(-c2ccc(F)c(F)c2)cs1 [Compound 164]	2650
O=C(Nc1cc(C(F)(F)F)cc(C(F)(F)F)c1)Nc1cc(-c2ccc(Cl)cc2)nn1-c1ccc(C(F)(F)F)cc1 [Compound 79]	126
O=C(Nc1cc(C(F)(F)F)cc(C(F)(F)F)c1)Nc1nc(-c2ccc(Cl)cc2Cl)cs1 [Compound 148]	400
Cc1c(-c2csc(NC(=O)Nc3cc(C(F)(F)F)cc(C(F)(F)F)c3)n2)sc2ccc(Cl)cc12 [Compound 157]	332
O=C(Nc1nc(-c2ccc(Cl)cc2)cs1)Nc1c(Cl)cc(Cl)cc1Cl [Compound 171]	927
O=C(Nc1cc(C(F)(F)F)cc(C(F)(F)F)c1)Nc1cc(-c2cccc(C(F)(F)F)c2)nn1-c1ccc(C(F)(F)F)cc1 [Compound 80]	539
O=C(Nc1cc(Cl)cc(Cl)c1)Nc1nc(-c2ccc(Cl)cc2)cs1 [Compound 163]	180
O=C(Nc1cc(C(F)(F)F)cc(C(F)(F)F)c1)Nc1nc(CCCO)cs1 [Compound 125]	2070
O=C(Nc1cccc(Br)c1)Nc1nc(-c2ccc(Br)cc2)cs1 [Compound 159]	543
O=C(Nc1cc(C(F)(F)F)cc(C(F)(F)F)c1)Nc1nc(-c2ccc(Br)cc2)cs1 [Compound 136]	133
O=C(Nc1cc(C(F)(F)F)cc(C(F)(F)F)c1)Nc1nc(-c2ccccc2)cs1 [Compound 132]	970

Tested on: Staphylococcus aureus bacteria (ATCC 9604 SV)
Assay: Minimal inhibitory concentration (MIC), broth microdilution
Type: cell-based
Settings: ATCC9604, Staphylococcus aureus ATCC 9604 SV, 24 h at 37° C., read-out: MIC
Experimental: as §1

Compound	MIC [µg/mL]
O=C(c1ccccn1)C1C(=O)N(c2cc(Cl)cc(Cl)c2)N=C1c1ccccc1 (stereo not drawn) [Compound 50, 2-(3,5-Dichloro-phenyl)-5-phenyl-4-(pyridine-2-carbonyl)-2,4-dihydro-pyrazol-3-one]	10.3 (≈ 25.1 µM)

Same assay, conditions: Staphylococcus aureus ATCC 9604 SV, 24 h at 37° C.

Compound	MIC [µg/mL]
O=C1CC(c2ccc(F)cc2)=NN1c1cc(Cl)cc(Cl)c1 [Compound 16]	0.485 (≈ 1.5 µM)
CC(=O)C=C1C(=O)N(c2cc(Cl)cc(Cl)c2)N=C1c1ccccc1 [Compound 25]	3.12 (≈ 8.69 µM)
O=C1C(CCc2ccccn2)C(c2ccccc2)=NN1c1cc(Cl)cc(Cl)c1 (stereo not drawn) [Compound 66]	5.13 (≈ 12.5 µM)
CCC1=NN(c2cc(Cl)cc(Cl)c2)C(=O)C1=Cc1cccnc1 [Compound 54]	0.750 (≈ 2.17 µM)
CCC1=NN(c2cc(Cl)cc(Cl)c2)C(=O)C1=Cc1cccc(C(=O)O)c1 [Compound 58]	6.25 (≈ 16.1 µM)
O=C(O)c1ccccc1C=C1C(=O)N(c2cc(Cl)cc(Cl)c2)N=C1c1ccccc1 [Compound 24]	1.35 (≈ 3.09 µM)
CCC1=NN(c2cc(Cl)cc(Cl)c2)C(=O)C1=CC(=O)O [Compound 57]	6.25 (≈ 20 µM)
O=C(O)c1cccc(C=C2C(=O)N(c3cc(Cl)cc(Cl)c3)N=C2c2ccccc2)c1 [Compound 51]	1.31 (≈ 3 µM)
O=C(NCc1cccc(Cl)c1)Nc1nc(C2CCCC2)cs1 [Compound 173]	8.40 (≈ 25 µM)
O=C1C(=Cc2ccsc2)C(c2ccccc2)=NN1c1cc(Cl)cc(Cl)c1 [Compound 33]	5.00 (≈ 12.5 µM)
O=C(O)c1ccc(C=C2C(=O)N(c3cc(Cl)cc(Cl)c3)N=C2c2ccccc2)cc1 [Compound 52]	0.656 (≈ 1.5 µM)
COc1ccc(C(=O)C2C(=O)N(c3cc(Cl)cc(Cl)c3)N=C2c2ccccc2)cc1 (stereo not drawn) [Compound 49]	10.0 (≈ 22.8 µM)
O=C(O)C=C1C(=O)N(c2cc(Cl)cc(Cl)c2)N=C1c1ccccc1 [Compound 46]	1.50 (≈ 4.15 µM)
O=C1C(=Cc2cccnc2)C(c2ccccc2)=NN1c1cc(Cl)cc(Cl)c1 [Compound 30]	1.20 (≈ 3.04 µM)
CC(C)=C1C(=O)N(c2cc(Cl)cc(Cl)c2)N=C1c1ccccc1 [Compound 22]	0.518 (≈ 1.5 µM)
CC(C)(C)c1csc(NC(=O)NCc2cccc(Cl)c2)n1 [Compound 172]	8.10 (≈ 25 µM)
O=C1C(=Cc2ccoc2)C(c2ccccc2)=NN1c1cc(Cl)cc(Cl)c1 [Compound 34]	2.40 (≈ 6.26 µM)
O=C1Nc2ccccc2C1=C1C(=O)N(c2cc(Cl)cc(Cl)c2)N=C1c1ccccc1 [Compound 42]	1.20 (≈ 2.76 µM)
CCC1=NN(c2cc(Cl)cc(Cl)c2)C(=O)C1=Cc1ccco1 [Compound 55]	1.50 (≈ 4.48 µM)

Tested on: methicillin-resistant Staphylococcus aureus (ATCC 33591)
Assay: In vivo mouse intraperitoneal infection, mortality and % survivors over 7 days
Settings: 2 × 2 mg/kg s.c., 1 and 5 h post inoculation, MRSA ATCC 33591 i.p., ICR mice
Experimental: Ten male ICR mice weighing 20 grams were inoculated intraperitoneally with an LD90-100 dose (2-3×10^7 CFU/mouse) of methicillin-resistant Staphylococcus aureus (ATCC 33591) in brain-heart infusion broth containing 5% mucin. Compounds were suspended in a vehicle containing 1% cremophore EL (Sigma) in normal saline and were administered subcutaneously in a volume of 0.4 ml per mouse either 1 hour following bacterial inoculation or 1 and 5 hours post inoculation. Animals receiving two doses of drug were injected subcutaneously in the hindquarter one hour post-innoculation and in the neck area, 5 hours post-innoculation. Deaths occurring during the subsequent 7 days are recorded. Mortality and % survivor endpoints are calculated.

Compound	In Vivo, double dose (% of mice rescued) [% @ 2 × 2 mg/kg]
O=C1CC(c2ccc(F)cc2)=NN1c1cc(Cl)cc(Cl)c1 [Compound 16]	0
CC(=O)C=C1C(=O)N(c2cc(Cl)cc(Cl)c2)N=C1c1ccccc1 [Compound 25]	0
O=C1C(CCc2ccccn2)C(c2ccccc2)=NN1c1cc(Cl)cc(Cl)c1 (stereo not drawn) [Compound 66]	25
CCC1=NN(c2cc(Cl)cc(Cl)c2)C(=O)C1=Cc1cccnc1 [Compound 54]	0
CCC1=NN(c2cc(Cl)cc(Cl)c2)C(=O)C1=Cc1cccc(C(=O)O)c1 [Compound 58]	25
O=C(O)c1ccccc1C=C1C(=O)N(c2cc(Cl)cc(Cl)c2)N=C1c1ccccc1 [Compound 24]	0
CCC1=NN(c2cc(Cl)cc(Cl)c2)C(=O)C1=CC(=O)O [Compound 57]	0
O=C(O)c1cccc(C=C2C(=O)N(c3cc(Cl)cc(Cl)c3)N=C2c2ccccc2)c1 [Compound 51]	25
O=C(NCc1cccc(Cl)c1)Nc1nc(C2CCCC2)cs1 [Compound 173]	25
O=C1C(=Cc2ccsc2)C(c2ccccc2)=NN1c1cc(Cl)cc(Cl)c1 [Compound 33]	25
O=C(O)c1ccc(C=C2C(=O)N(c3cc(Cl)cc(Cl)c3)N=C2c2ccccc2)cc1 [Compound 52]	0
COc1ccc(C(=O)C2C(=O)N(c3cc(Cl)cc(Cl)c3)N=C2c2ccccc2)cc1 (stereo not drawn) [Compound 49]	0
O=C(c1ccccn1)C1C(=O)N(c2cc(Cl)cc(Cl)c2)N=C1c1ccccc1 (stereo not drawn) [Compound 50, 2-(3,5-Dichloro-phenyl)-5-phenyl-4-(pyridine-2-carbonyl)-2,4-dihydro-pyrazol-3-one]	0
O=C(O)C=C1C(=O)N(c2cc(Cl)cc(Cl)c2)N=C1c1ccccc1 [Compound 46]	0
O=C1C(=Cc2cccnc2)C(c2ccccc2)=NN1c1cc(Cl)cc(Cl)c1 [Compound 30]	0
CC(C)=C1C(=O)N(c2cc(Cl)cc(Cl)c2)N=C1c1ccccc1 [Compound 22]	0
CC(C)(C)c1csc(NC(=O)NCc2cccc(Cl)c2)n1 [Compound 172]	12.5
O=C1C(=Cc2ccoc2)C(c2ccccc2)=NN1c1cc(Cl)cc(Cl)c1 [Compound 34]	25
O=C1Nc2ccccc2C1=C1C(=O)N(c2cc(Cl)cc(Cl)c2)N=C1c1ccccc1 [Compound 42]	0
CCC1=NN(c2cc(Cl)cc(Cl)c2)C(=O)C1=Cc1ccco1 [Compound 55]	0

Same assay, conditions: 2 × 20 mg/kg s.c., 1 and 5 h post inoculation, MRSA ATCC 33591 i.p., ICR mice

Compound	In Vivo, double dose (% of mice rescued) [% @ 2 × 20 mg/kg]
O=C1CC(c2ccc(F)cc2)=NN1c1cc(Cl)cc(Cl)c1 [Compound 16]	25
CC(=O)C=C1C(=O)N(c2cc(Cl)cc(Cl)c2)N=C1c1ccccc1 [Compound 25]	0
O=C1C(CCc2ccccn2)C(c2ccccc2)=NN1c1cc(Cl)cc(Cl)c1 (stereo not drawn) [Compound 66]	0
CCC1=NN(c2cc(Cl)cc(Cl)c2)C(=O)C1=Cc1cccnc1 [Compound 54]	12.5
CCC1=NN(c2cc(Cl)cc(Cl)c2)C(=O)C1=Cc1cccc(C(=O)O)c1 [Compound 58]	12.5
O=C(O)c1ccccc1C=C1C(=O)N(c2cc(Cl)cc(Cl)c2)N=C1c1ccccc1 [Compound 24]	0
CCC1=NN(c2cc(Cl)cc(Cl)c2)C(=O)C1=CC(=O)O [Compound 57]	0
O=C(O)c1cccc(C=C2C(=O)N(c3cc(Cl)cc(Cl)c3)N=C2c2ccccc2)c1 [Compound 51]	25
O=C(NCc1cccc(Cl)c1)Nc1nc(C2CCCC2)cs1 [Compound 173]	25
O=C1C(=Cc2ccsc2)C(c2ccccc2)=NN1c1cc(Cl)cc(Cl)c1 [Compound 33]	0
O=C(O)c1ccc(C=C2C(=O)N(c3cc(Cl)cc(Cl)c3)N=C2c2ccccc2)cc1 [Compound 52]	0
COc1ccc(C(=O)C2C(=O)N(c3cc(Cl)cc(Cl)c3)N=C2c2ccccc2)cc1 (stereo not drawn) [Compound 49]	25
O=C(c1ccccn1)C1C(=O)N(c2cc(Cl)cc(Cl)c2)N=C1c1ccccc1 (stereo not drawn) [Compound 50, 2-(3,5-Dichloro-phenyl)-5-phenyl-4-(pyridine-2-carbonyl)-2,4-dihydro-pyrazol-3-one]	0
O=C(O)C=C1C(=O)N(c2cc(Cl)cc(Cl)c2)N=C1c1ccccc1 [Compound 46]	0
O=C1C(=Cc2cccnc2)C(c2ccccc2)=NN1c1cc(Cl)cc(Cl)c1 [Compound 30]	0
CC(C)=C1C(=O)N(c2cc(Cl)cc(Cl)c2)N=C1c1ccccc1 [Compound 22]	25
CC(C)(C)c1csc(NC(=O)NCc2cccc(Cl)c2)n1 [Compound 172]	25
O=C1C(=Cc2ccoc2)C(c2ccccc2)=NN1c1cc(Cl)cc(Cl)c1 [Compound 34]	25
O=C1Nc2ccccc2C1=C1C(=O)N(c2cc(Cl)cc(Cl)c2)N=C1c1ccccc1 [Compound 42]	0
CCC1=NN(c2cc(Cl)cc(Cl)c2)C(=O)C1=Cc1ccco1 [Compound 55]	25
